Target: T1, PYL10 (Arabidopsis thaliana, UniProt Q8H1R0)
T1 sequence (Q8H1R0 1-183): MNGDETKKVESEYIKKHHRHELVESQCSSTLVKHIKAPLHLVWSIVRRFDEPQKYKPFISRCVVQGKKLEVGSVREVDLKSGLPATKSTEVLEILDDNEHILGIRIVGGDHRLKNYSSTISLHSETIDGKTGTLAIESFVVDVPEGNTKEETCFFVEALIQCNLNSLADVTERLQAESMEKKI
Assay: ITC at […] °C, pH […]; supported by 1H-15N HSQC NMR titration and HAB1 phosphatase assay
Format: binding

## CC1=CC(=O)CC(C)(C)[C@@]1(O)/C=C/C(C)=C\C(=O)O [abscisic acid]
  Kd: 66.2 ± 13.9 µM
